Numbered stars: 1 amine (or outer) side, 2 acyl side, 3 side chain; on linkers, the order of the positions; unused ones are H or OH. Square brackets hold non-standard residues; d marks the D form. Peptide text beside a SMILES is read from it. X1 = O=C(C1(N[*:1])CCC(c2ccccc2)CC1)[*:2]; hArg = N=C(N)NCCCC[C@H](N)C(=O)O
How the values were obtained:
[1] = tested on: Homo sapiens; assay: Hypocholesterolemic activity in human assessed as reduction in LDL-C level at 300 mg, QD administered for 28 days; type: functional; design: scale not given: the % may be the effect or the level left; conditions: time 28 day
[2] = tested on: Homo sapiens; assay: Hypocholesterolemic activity in human assessed as reduction in TC level at 300 mg, QD administered for 28 days; type: functional; design: scale not given: the % may be the effect or the level left; conditions: time 28 day
[3] = tested on: Homo sapiens; assay: Hypocholesterolemic activity in human assessed as reduction in ApoB level at 300 mg, QD administered for 28 days; type: functional; design: scale not given: the % may be the effect or the level left; conditions: time 28 day
[4] = molecular target: T1, Proprotein convertase subtilisin/kexin type 9 (Homo sapiens, UniProt Q8NBP7); assay: Binding affinity to human PCSK9
T1 sequence (Q8NBP7 31-152 limits assumed): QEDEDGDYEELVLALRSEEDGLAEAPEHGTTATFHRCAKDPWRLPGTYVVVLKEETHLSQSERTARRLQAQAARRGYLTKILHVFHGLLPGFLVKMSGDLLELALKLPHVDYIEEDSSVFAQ
T1 sequence (Q8NBP7 153-692 limits assumed): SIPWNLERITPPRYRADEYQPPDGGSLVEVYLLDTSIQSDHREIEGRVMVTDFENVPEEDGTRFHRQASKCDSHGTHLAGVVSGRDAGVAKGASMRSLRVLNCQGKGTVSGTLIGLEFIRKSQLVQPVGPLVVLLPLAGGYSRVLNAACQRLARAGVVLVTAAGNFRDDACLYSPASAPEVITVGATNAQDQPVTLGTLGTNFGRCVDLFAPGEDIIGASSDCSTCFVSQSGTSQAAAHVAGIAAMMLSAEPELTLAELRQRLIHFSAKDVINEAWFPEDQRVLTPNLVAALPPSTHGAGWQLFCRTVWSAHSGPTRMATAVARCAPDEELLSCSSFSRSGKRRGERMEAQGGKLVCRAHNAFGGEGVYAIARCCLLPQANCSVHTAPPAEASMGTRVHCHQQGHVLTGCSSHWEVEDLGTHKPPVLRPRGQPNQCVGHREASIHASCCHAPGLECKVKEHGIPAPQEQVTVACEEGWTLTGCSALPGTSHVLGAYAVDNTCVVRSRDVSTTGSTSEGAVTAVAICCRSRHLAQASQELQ

[5] = molecular target: Proprotein convertase subtilisin/kexin type 9 (Mus musculus, UniProt Q80W65); assay: Binding affinity to mouse PCSK9
Chain of Proprotein convertase subtilisin/kexin type 9 (Mus musculus, UniProt Q80W65) (Q80W65 35-155 limits assumed): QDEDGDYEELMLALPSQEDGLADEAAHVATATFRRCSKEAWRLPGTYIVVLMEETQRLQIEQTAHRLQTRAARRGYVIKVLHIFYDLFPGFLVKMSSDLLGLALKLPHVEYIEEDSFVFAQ
Chain of Proprotein convertase subtilisin/kexin type 9 (Mus musculus, UniProt Q80W65) (Q80W65 156-694 limits assumed): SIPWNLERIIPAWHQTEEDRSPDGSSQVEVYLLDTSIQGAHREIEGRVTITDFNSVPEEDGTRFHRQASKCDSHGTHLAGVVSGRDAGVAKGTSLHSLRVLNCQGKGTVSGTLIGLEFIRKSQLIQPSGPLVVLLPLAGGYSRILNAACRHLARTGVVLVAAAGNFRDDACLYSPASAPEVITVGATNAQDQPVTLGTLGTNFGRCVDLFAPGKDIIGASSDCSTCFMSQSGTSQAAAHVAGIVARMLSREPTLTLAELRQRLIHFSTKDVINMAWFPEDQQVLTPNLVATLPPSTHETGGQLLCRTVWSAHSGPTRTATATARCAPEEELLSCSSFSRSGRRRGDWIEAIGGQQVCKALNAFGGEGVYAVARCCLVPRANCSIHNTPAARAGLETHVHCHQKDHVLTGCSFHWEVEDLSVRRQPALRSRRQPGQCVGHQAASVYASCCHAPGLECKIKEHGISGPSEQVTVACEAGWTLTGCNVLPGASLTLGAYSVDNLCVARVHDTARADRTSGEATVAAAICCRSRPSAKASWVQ

[6] = molecular target: T2, PCSK9/LDLR (Homo sapiens, UniProt Q8NBP7); assay: Inhibition of PCSK9-LDLR protein-protein interaction in human HepG2 cells assessed as increase in LDL uptake; type: cell-based
T2 sequence (Q8NBP7 31-152 limits assumed): as the sequence (Q8NBP7 31-152 limits assumed) above
T2 sequence (Q8NBP7 153-692 limits assumed): as the sequence (Q8NBP7 153-692 limits assumed) above
T2 sequence (P01130 22-860 partner limits assumed): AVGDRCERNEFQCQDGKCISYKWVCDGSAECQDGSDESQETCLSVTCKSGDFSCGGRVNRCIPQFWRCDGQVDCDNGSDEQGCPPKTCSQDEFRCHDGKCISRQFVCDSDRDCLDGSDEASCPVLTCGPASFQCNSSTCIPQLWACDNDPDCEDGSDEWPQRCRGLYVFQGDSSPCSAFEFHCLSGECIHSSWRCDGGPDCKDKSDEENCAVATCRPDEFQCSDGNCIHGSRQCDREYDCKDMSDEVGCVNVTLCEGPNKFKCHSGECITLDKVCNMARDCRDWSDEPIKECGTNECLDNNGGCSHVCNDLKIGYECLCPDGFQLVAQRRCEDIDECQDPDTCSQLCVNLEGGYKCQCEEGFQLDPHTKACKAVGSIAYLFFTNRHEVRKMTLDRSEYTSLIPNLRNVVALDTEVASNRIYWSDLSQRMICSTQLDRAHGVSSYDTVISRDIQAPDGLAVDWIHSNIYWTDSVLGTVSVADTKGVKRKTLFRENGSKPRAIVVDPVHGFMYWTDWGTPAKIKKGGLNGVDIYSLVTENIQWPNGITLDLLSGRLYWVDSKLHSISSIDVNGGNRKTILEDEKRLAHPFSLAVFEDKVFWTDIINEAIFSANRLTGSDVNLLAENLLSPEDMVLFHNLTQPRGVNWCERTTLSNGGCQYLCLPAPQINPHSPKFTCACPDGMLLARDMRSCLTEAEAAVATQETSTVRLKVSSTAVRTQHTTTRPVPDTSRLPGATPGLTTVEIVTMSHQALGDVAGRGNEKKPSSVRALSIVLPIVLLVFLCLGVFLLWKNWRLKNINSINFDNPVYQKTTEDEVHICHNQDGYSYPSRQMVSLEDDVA

[7] = species on record: Homo sapiens; assay: Hypocholesterolemic activity in human assessed as reduction in LDL-C level at 10 to 20 mg; type: functional; design: scale not given: the % may be the effect or the level left; conditions: dose 10-20 mg
[8] = molecular target: T1, Proprotein convertase subtilisin/kexin type 9; assay: Binding affinity to PCSK9 (unknown origin)
[9] = molecular target: T2, PCSK9/LDLR; assay: Inhibition of PCSK9-LDLR (unknown origin) protein-protein interaction; type: protein assay
[10] = molecular target: T1, Proprotein convertase subtilisin/kexin type 9; assay: Inhibition of PCSK9 in human HepG2 cells assessed as restoration of LDLR at 1 uM relative to control; type: cell-based
[11] = molecular target: T1, Proprotein convertase subtilisin/kexin type 9; assay: Inhibition of PCSK9 in human HepG2 cells assessed as increase in LDL uptake at 1 uM relative to control; type: cell-based
[12] = molecular target: T1, Proprotein convertase subtilisin/kexin type 9; assay: Inhibition of human PCSK9 preincubated for 30 mins followed by EGF(A) addition and measured after 2 hrs by TR-FRET assay
[13] = molecular target: T3, 3-hydroxy-3-methylglutaryl-coenzyme A reductase (Homo sapiens, UniProt P04035); assay: Inhibition of HMG CoA reductase (unknown origin)
T3 sequence (P04035 whole entry): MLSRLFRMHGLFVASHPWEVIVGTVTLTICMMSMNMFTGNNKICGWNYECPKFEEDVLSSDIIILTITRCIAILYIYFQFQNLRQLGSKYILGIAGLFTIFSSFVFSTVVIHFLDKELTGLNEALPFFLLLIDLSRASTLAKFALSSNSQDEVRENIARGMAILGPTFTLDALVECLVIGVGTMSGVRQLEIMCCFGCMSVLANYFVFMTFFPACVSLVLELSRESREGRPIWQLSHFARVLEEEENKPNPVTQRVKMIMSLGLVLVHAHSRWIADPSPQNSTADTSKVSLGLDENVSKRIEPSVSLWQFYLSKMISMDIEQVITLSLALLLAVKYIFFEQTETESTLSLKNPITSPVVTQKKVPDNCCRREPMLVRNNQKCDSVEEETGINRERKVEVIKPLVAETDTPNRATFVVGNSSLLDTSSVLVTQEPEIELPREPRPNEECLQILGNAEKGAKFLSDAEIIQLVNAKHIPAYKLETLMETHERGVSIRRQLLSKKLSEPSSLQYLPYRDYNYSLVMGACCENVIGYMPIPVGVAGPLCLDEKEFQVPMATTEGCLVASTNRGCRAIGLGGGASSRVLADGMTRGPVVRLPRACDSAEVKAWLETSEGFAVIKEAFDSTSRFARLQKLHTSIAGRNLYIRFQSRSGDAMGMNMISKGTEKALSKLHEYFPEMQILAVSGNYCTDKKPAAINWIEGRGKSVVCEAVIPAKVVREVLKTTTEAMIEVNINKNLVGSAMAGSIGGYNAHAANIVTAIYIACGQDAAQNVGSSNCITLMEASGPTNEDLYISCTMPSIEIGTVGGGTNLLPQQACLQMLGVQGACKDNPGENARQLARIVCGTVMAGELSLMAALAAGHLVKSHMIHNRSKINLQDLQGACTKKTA

[14] = molecular target: T1, Proprotein convertase subtilisin/kexin type 9; assay: Inhibition of PCSK9 mediated LDLR degradation in human HepG2 cells assessed as restoration of LDLR; type: cell-based
[15] = molecular target: T1, Proprotein convertase subtilisin/kexin type 9; assay: Inhibition of human PCSK9 preincubated for 30 mins followed by ab20 addition and measured after 2 hrs by TR-FRET assay
[16] = molecular target: T1, Proprotein convertase subtilisin/kexin type 9; assay: Inhibition of human PCSK9 preincubated for 30 mins followed by LDLR addition and measured after 2 hrs by TR-FRET assay
[17] = molecular target: T1, Proprotein convertase subtilisin/kexin type 9; assay: Inhibition of human PCSK9

SMILES: COc1ccc2c(c1)CCN1Cc3c(ccc(OC)c3OS(=O)(=O)c3cccc(F)c3)C[C@H]21.Cl
- Activity [1]: 26.3%
- Activity [2]: 20.1%
- Activity [3]: 17.4%

SMILES: CC(C)[C@@H]1NC(=O)[C@H](Cc2ccccc2)NC(=O)CSC[C@@H](C(=O)NCC(N)=O)NC(=O)[C@@H]2CCCN2C(=O)[C@H](CCCNC(=N)N)NC(=O)[C@H](CC(=O)O)NC(=O)[C@H](C)N(C)C(=O)[C@H](Cc2ccc(-c3ccccc3)cc2)NC(=O)[C@H](C)N(C)C(=O)[C@H](Cc2ccc(-c3ccccc3)cc2)NC(=O)[C@H]([C@@H](C)O)NC(=O)[C@H]([C@@H](C)O)NC(=O)[C@H](CO)NC1=O
- Kd [4]: 0.0003 µM
- Kd [5]: 0.001 µM
- EC50 [6]: 0.106 µM

SMILES: C[C@H]1NC(=O)[C@H](CNC(=O)CCOCCOCC[N+](C)(C)C)NC(=O)CCSCc2cc3cc(c2)-n2cc(nn2)Cn2cc(c4cc(F)ccc42)C[C@@H]2NC(=O)[C@H](Cc4cccc(c4)C/C=C/CCO[C@H]4CCN(C2=O)[C@@H]4C(=O)N[C@@H]([C@@H](C)O)C(=O)N[C@@H](Cc2ccc(O)cc2)C(=O)N2CCC[C@@]2(C)C(=O)NCCSC3)NC1=O
- Activity [7]: 65%

SMILES: CC(C)C[C@H](C(=O)N1CCN([C@@H](CC(N)=O)C(=O)N[C@@H](CCCNC(=N)N)C(=O)C[C@H]2CCOC2=O)CC1)N1C(=O)N[C@@H](CC(=O)O)C1=O
- Kd [8]: 24.8 µM

SMILES: CC(=O)N[C@H](C(=O)N[C@H](C(=O)N[C@@H](Cc1ccccc1)C(=O)N[C@@H](CCCNC(=N)N)C(=O)N[C@@H](CO)C(=O)N[C@@H](Cc1c[nH]c2ccccc12)C(=O)N[C@@H](CCC(=O)O)C(=O)N[C@@H](CCC(=O)O)C(=O)N[C@@H](Cc1ccc(O)cc1)C(=O)N[C@@H](CC(C)C)C(=O)N[C@@H](CC(=O)O)C(=O)N[C@@H](Cc1ccc(O)cc1)C(=O)N[C@H](C(N)=O)C(C)C)C(C)C)[C@@H](C)O (Ac-TVFRSWEEYLDYV-NH2)
- IC50 [9]: 14.5 µM
- inhibition [10]: 75.3%
- inhibition [11]: 88%

SMILES: CC(=O)N[C@H](C(=O)N[C@H](C(=O)N[C@@H](Cc1ccccc1)C(=O)N[C@H](C(=O)N[C@@H](CO)C(=O)N[C@@H](Cc1c[nH]c2ccccc12)C(=O)N[C@@H](CCC(=O)O)C(=O)N[C@@H](CCC(=O)O)C(=O)N[C@@H](C)C(=O)N[C@@H](CC(C)C)C(=O)N[C@@H](CC(=O)O)C(=O)N[C@@H](Cc1c[nH]c2ccccc12)C(=O)N[C@H](C(N)=O)C(C)C)[C@@H](C)O)C(C)C)[C@@H](C)O (Ac-TVFTSWEEALDWV-NH2)
- IC50 [9]: 27.1 µM
- inhibition [10]: 89.9%
- inhibition [11]: 99%

SMILES: CC[C@H](C)[C@H](NC(=O)[C@H](CCCCNC(=N)N)NC(=O)[C@@H](NC(=O)[C@H](CC(C)C)NC(=O)[C@H](CC(N)=O)NC(=O)[C@H](Cc1c[nH]c2ccccc12)NC(=O)[C@@H]1CCCN1C(=O)[C@H](CCSC)NC(=O)[C@H](CC(C)C)NC(=O)[C@@H](N)CC(=O)O)C(C)C)C(=O)NCC(=O)N[C@@H](CC(C)C)C(=O)N[C@@H](CC(C)C)C(=O)N[C@@H](CCCNC(=N)N)C(=O)O (H-DLMPWNLV[hArg]IGLLR-OH)
- IC50 [12]: > 50 µM

SMILES: CC[C@H](C)[C@H](NC(=O)[C@@H](N)CC(C)C)C(=O)N[C@@H](CC(C)C)C(=O)N1CCC[C@H]1C(=O)N[C@@H](CCCCN)C(=O)N[C@@H](Cc1c[nH]cn1)C(=O)N[C@@H](CO)C(=O)N[C@@H](C)C(=O)N[C@@H](CC(=O)O)C(=O)O (H-LILPKHSAD-OH)
- IC50 [9]: 1.6 µM
- IC50 [13]: 147 µM

SMILES: CC(C)C[C@H](N)C(=O)N1CCC[C@H]1C(=O)N[C@@H](CCCCN)C(=O)N[C@@H](Cc1c[nH]cn1)C(=O)N[C@@H](CO)C(=O)N[C@@H](C)C(=O)N[C@@H](CC(=O)O)C(=O)O (H-LPKHSAD-OH)
- IC50 [9]: 1.7 µM
- IC50 [13]: 175 µM

SMILES: CC(C)C[C@H](NC(=O)[C@H](Cc1ccc(O)cc1)NC(=O)[C@@H](N)CC(C)C)C(=O)N1CCC[C@H]1C(=O)N[C@@H](CCCCN)C(=O)N[C@@H](Cc1c[nH]cn1)C(=O)N[C@@H](CO)C(=O)N[C@@H](CC(=O)O)C(=O)N[C@@H](CCCNC(=N)N)C(=O)N[C@@H](CC(=O)O)C(=O)O (H-LYLPKHSDRD-OH)
- IC50 [9]: 0.7 µM

SMILES: CC[C@H](C)[C@H](NC(=O)[C@H](CCCCNC(=N)N)NC(=O)[C@@H](NC(=O)[C@H](CC(C)C)NC(=O)[C@H](CC(N)=O)NC(=O)[C@H](Cc1c[nH]c2ccccc12)NC(=O)CNC(=O)[C@@H]1CCCN1C(=O)[C@H](Cc1ccccc1)NC(=O)[C@H](CO)NC(=O)[C@H](CCC(=O)O)NC(=O)[C@@H](N)CCSC)C(C)C)C(=O)NCC(=O)N[C@@H](CC(C)C)C(=O)N[C@@H](CC(C)C)C(=O)N[C@@H](CCCNC(=N)N)C(=O)O (H-MESFPGWNLV[hArg]IGLLR-OH)
- Kd [4]: 0.7 µM
- inhibition [14]: 70%
- IC50 [15]: 0.84 µM
- IC50 [16]: 25 µM

SMILES: CC[C@H](C)[C@H](NC(=O)[C@H](CCC(N)=O)NC(=O)[C@H](CC(C)C)NC(=O)[C@H](CC(N)=O)NC(=O)[C@H](Cc1c[nH]c2ccccc12)NC(=O)[C@@H]1CCCN1C(=O)[C@H](CC(C)C)NC(=O)[C@H](CCCNC(=N)N)NC(=O)[C@H](CS)NC(=O)CNC(=O)[C@H](CO)NC(=O)CNC(=O)[C@@H](NC(=O)[C@H](Cc1c[nH]c2ccccc12)NC(=O)[C@H](CC(=O)O)NC(=O)[C@H](CC(C)C)NC(=O)[C@H](Cc1ccc(O)cc1)NC(=O)[C@H](CCC(=O)O)NC(=O)[C@H](CCC(=O)O)NC(=O)[C@H](Cc1c[nH]c2ccccc12)NC(=O)[C@H](CO)NC(=O)[C@@H](NC(=O)[C@H](Cc1ccccc1)NC(=O)[C@@H](NC(=O)[C@@H](N)[C@@H](C)O)C(C)C)[C@@H](C)O)C(C)C)C(=O)NCC(=O)N[C@@H](CC(C)C)C(=O)N1CCC[C@H]1C(=O)N[C@@H](CS)C(=O)O (H-TVFTSWEEYLDWVGSGCRLPWNLQIGLPC-OH)
- Kd [4]: 0.0055 µM
- IC50 [17]: 0.02 µM
- EC50 [14]: 0.25 µM
- IC50 [12]: > 50 µM

SMILES: CC[C@H](C)[C@H](NC(=O)[C@H](CCCCNC(=N)N)NC(=O)[C@@H](NC(=O)[C@H](CC(C)C)NC(=O)[C@H](CC(N)=O)NC(=O)[C@@H](N)Cc1c[nH]c2ccccc12)C(C)C)C(=O)NCC(=O)N[C@@H](CC(C)C)C(=O)N[C@@H](CC(C)C)C(=O)N[C@@H](CCCNC(=N)N)C(=O)O (H-WNLV[hArg]IGLLR-OH)
- IC50 [12]: > 50 µM

SMILES: CC[C@H](C)[C@H](NC(=O)[C@H](CCCCNC(=N)N)NC(=O)[C@H](CCCCN)NC(=O)[C@H](CC(C)C)NC(=O)[C@H](CC(N)=O)NC(=O)[C@H](Cc1c[nH]c2ccccc12)NC(=O)C1(N)CCC(c2ccccc2)CC1)C(=O)NCC(=O)N[C@@H](CC(C)C)C(=O)N[C@@H](CC(C)C)C(=O)N[C@@H](CCCNC(=N)N)C(=O)O (stereo partly specified) (H-[X1]WNLK[hArg]IGLLR-OH)
- Kd [4]: 0.39 µM
- inhibition [14]: 50%
- IC50 [15]: 0.04 µM
- IC50 [12]: 0.72 µM
- IC50 [16]: 1.83 µM

SMILES: CC[C@H](C)[C@H](NC(=O)[C@H](CCCCNC(=N)N)NC(=O)[C@@H](NC(=O)[C@H](CC(C)C)NC(=O)[C@H](CC(N)=O)NC(=O)[C@H](Cc1c[nH]c2ccccc12)NC(=O)C1(N)CCC(c2ccccc2)CC1)C(C)C)C(=O)NCC(=O)N[C@@H](CC(C)C)C(=O)N[C@@H](CC(C)C)C(=O)N[C@@H](CCCNC(=N)N)C(=O)O (stereo partly specified) (H-[X1]WNLV[hArg]IGLLR-OH)
- IC50 [17]: 0.7 µM
- IC50 [15]: 0.14 µM

Reference: ChEMBL document CHEMBL5233285, “Recent Update on the Development of PCSK9 Inhibitors for Hypercholesterolemia Treatment” (J Med Chem, 2022)
